Consider 7 sequences from patent US11878053B2, “Vaccine compositions comprising tryptophan 2,3-dioxygenase or fragments thereof” (IO Biotech ApS, priority 2014, dated 2024).

For experiment [1], the system named is peripheral blood mononuclear cells (PBMC). Nature of the experiment: IFNγ ELISPOT assay with HLA-A2 restricted TDO peptides. It is filed as cell-based, human. To be noted: for TDO responses shown by ELISPOT vs control peptide, DFR method: 3*10^5 cells/well, control peptide HIVpol463-476, examples; for IFNγ producing T-cell in response to the peptide: PBMC from six cancer patients, after one round of in vitro stimulation; for ex vivo IFNγ ELISPOT response: directly ex vivo, PBMC from different cancer patients, 9*10^5 cells/well.

The next experiment has as its target T1, HLA-A2 (Homo sapiens, UniProt P04439, D140Y/D185E/D98H/E176V/E277Q/G131W/G231S/I119V/I121R/I166T/I218V/N151K/N90K/P208A/P217A/Q86G/Q94H/R138H/R169H).
T1 construct: made in house; host or cells: E. coli
Conditions: positive control peptides, well described; cited from earlier work.

Experiment [2] relates to TDO-specific CD8+ T cells. In words: Tetramer staining (flow cytometry) of TDO-specific CD8+ T cells. Format: cell-based, human. To be noted: PBMC from a cancer patient repeatedly stimulated with autologous DC loaded with the peptide (5- or 4-times). Here is the method: DC were generated by adherence of PBMCs to the plastic surface of a well for one hour in RPMI 1640 (Gibco) before removal of non-adherent cells. The adherent cells were treated with 1000 U/ml GM-CSF (PeproTech, London, UK) and 250 U/ml IL-4 (Peprotech) in X-vivo (Lonza, Copenhagen, Denmark) supplied with 5% human AB serum (Sigma-Aldrich) and placed in a 37° C., 5% CO2 and humidified environment. On day six, maturation cocktail consisting of 1000 U/ml of each TNFα, IL-1P and IL-6 and 1 μg/ml PGE2 (Peprotech) was added to the cells. On day eight, mature DCs were harvested, loaded with 100 μM TDO peptide in X-vivo 15 (Lonza) for four hours in the incubator. After washing, peptide-loaded DCs were mixed with autologous PBLs in X-vivo 15 (Lonza) supplied with 5% human AB serum (Sigma-Aldrich). […] Cultures were stimulated this way twice seven days apart. Further stimulations were performed using autologous, irradiated (25Gy) PBLs loaded with 100 μM TDO peptide. The day after stimulation with PBLs the cultures were supplied with IL-2 (Proleukin; Novartis, Copenhagen, Denmark) to a final concentration of 40 U/ml. Peptide loaded MHC tetramers were […] with 2.5 μl of each phycoerytrhin (PE). […] The stainings were performed in 50 μl PBS (Lonza) supplied with 2% FCS (Gibco) for 15 minutes in the incubator. […]

The next experiment has as its system T2 cells. Nature of the experiment: 51Cr-release cytotoxicity assay, peptide-pulsed T2 cells. It is filed as cell-based. Conditions: short peptides added immediately before the assay, long peptides loaded overnight. The method, then:
Assessment of the cytotoxic capability of the generated T-cell lines was evaluated using a conventional chromium release assay as described. Briefly, target tumor cell lines were labeled with 100 μCi ^51Cr (Perkin Elmer, Skovlunde, Denmark) in 100 μl RPMI 1640 (Gibco) supplied with 10% FCS (Gibco) for one hour at 37° C. After washing of target cells, they were incubated with effector cells at different effector:target (E:T) ratios for four hours in the incubator. Subsequently, the amount of radioactivity in the supernatant was measured using a gamma cell counter (Perkin Elmer Wallac Wizard 1470 Automatic gamma counter).

The subject of a further experiment is CD4+ T cells in PBMC. In words: Cytokine ELISPOT (IFNγ, TNFα, IL-10, IL-17A) with long TDO peptides. Format: cell-based, human. Conditions: for Peptide-specific CD4 T-cell responses: ELISPOT, cancer patients and healthy donors; for IFNγ producing CD4+ T cells, cancer patients vs healthy donors: IFNγ ELISPOT; for IL-10 production in response to peptide stimulation: IL-10 ELISPOT; for IL-17 production in response to peptide stimulation: IL-17 ELISPOT; for cells producing TNFα in response to peptide, cancer patients vs healthy donors: TNFα ELISPOT.

Regarding “DLFNLSTYL (Peptide fragment of human TDO) [TDO364-372, Polypeptide fragment of human TDO]”, in experiment [1], the “TDO responses shown by ELISPOT vs control peptide, DFR method” value is reported as “statistically significant” and the “IFNγ producing T-cell in response to the peptide” value (shortened to “IFNγ producing T-cell in response”) was “presence of IFNγ producing T-cell”.

On to ILKEPVHGV [HIVpol468-476], for which the “affinity towards HLA-A2” value on HLA-A2 was “high affinity”.

Take “KLLVQQFSIL (Peptide fragment of human TDO) [TDO123-132, Polypeptide fragment of human TDO]”: the “frequency of TDO-specific CD8+ T cells by two color tetramer staining” value in experiment [2] was “dramatically increased”. Besides, the “lysis of T2 cells pulsed with the peptide by TDO123-132 specific cells” value (“lysis of T2 cells pulsed” for short) in the experiment with T2 cells was “lysed”. Besides, in experiment [1], the “TDO responses shown by ELISPOT vs control peptide, DFR method” value is given as “statistically significant”; the “IFNγ producing T-cell in response” value is listed as “presence of IFNγ producing T-cell”; the “ex vivo IFNγ ELISPOT response” value was “detectable directly ex vivo”.

On to “QLLTSLMDI (Peptide fragment of human TDO) [TDO309-317, Polypeptide fragment of human TDO]”, for which the “frequency of TDO-specific CD8+ T cells by two color tetramer staining” value in experiment [2] is given as “dramatically increased”. Also, the “lysis of T2 cells pulsed” value in the experiment with T2 cells is “not”. In experiment [1], the “TDO responses shown by ELISPOT vs control peptide, DFR method” value was “statistically significant”; the “IFNγ producing T-cell in response” value is given as “presence of IFNγ producing T-cell”; the “ex vivo IFNγ ELISPOT response” value is listed as “detectable directly ex vivo”.

As to “RFQVPFQLLTSLMDIDSLMT (Peptide fragment of human TDO) [TDO303-322, long (20 amino acids) peptide comprising TDO309-317]”, in the experiment with CD4+ T cells in PBMC, the “Peptide-specific CD4 T-cell responses” value is “present in both cancer patients and healthy donors”; the “IFNγ producing CD4+ T cells, cancer patients vs healthy donors” value is listed as “no difference”; the “IL-10 production in response to peptide stimulation” value is recorded as “restricted to cancer patients”; the “IL-17 production in response to peptide stimulation” value is “restricted to cancer patients”. The “cells producing TNFα in response to peptide, cancer patients vs healthy donors” value in the experiment on CD4+ T cells in PBMC is given as “more frequent in healthy donors”. For the same sequence, the “lysis of T2 cells pulsed” value with T2 cells is “not”.

As for “TLLELVEAWL (Peptide fragment of human TDO) [TDO200-208, Polypeptide fragment of human TDO]”, in experiment [1], the “TDO responses shown by ELISPOT vs control peptide, DFR method” value is given as “statistically significant”; the “IFNγ producing T-cell in response” value was “presence of IFNγ producing T-cell”; the “ex vivo IFNγ ELISPOT response” value is “detectable directly ex vivo”.

With “VSVILKLLVQQFSILETMTA (Peptide fragment of human TDO) [TDO118-137, long (20 amino acids) peptide comprising TDO123-132]”, in the experiment on CD4+ T cells in PBMC, the “Peptide-specific CD4 T-cell responses” value was “present in both cancer patients and healthy donors”; the “IFNγ producing CD4+ T cells, cancer patients vs healthy donors” value is recorded as “no difference”; the “IL-10 production in response to peptide stimulation” value is “restricted to cancer patients”; the “IL-17 production in response to peptide stimulation” value is “restricted to cancer patients”. Moreover, the “cells producing TNFα in response to peptide, cancer patients vs healthy donors” value in the experiment with CD4+ T cells in PBMC is recorded as “more frequent in healthy donors”. In addition, in the experiment with T2 cells, the “lysis of T2 cells pulsed” value is given as “lysed”.
